Data as given in patent US20230053688A1, “METHODS TO ALTER LATENCY IN EBV+ MALIGNANCIES” (Cornell University, priority 2020, published 2023).
Structures can show the parent of a compound that is named as a salt. Where two headings read alike, the source gives them in different places.

Test system: LMP1 expression in Kem I cells
Assay: microbe, parasite or virus in culture
Assay type: cell-based, EBV
Conditions: for Average LMP1 Fold Increase / Replicate 1-LMP1 Fold Increase / Replicate 2-LMP1 Fold Increase: Kem I cells, 48 hours; for fold induction at 2.5 µM: human gammaherpesvirus 4, 48 h
[1] = 2.5 uM, average of replicates 1 and 2
[2] = 2.5 uM, fold change in LMP1 transcript vs vehicle
[3] = read-out: Average LMP1 Fold Increase, Kem I cells, 2.5 uM, 48 hours, average of replicates 1 and 2
[4] = read-out: Replicate 1-LMP1 Fold Increase, Kem I cells, 2.5 uM, 48 hours, fold change in LMP1 transcript vs vehicle
[5] = read-out: Replicate 2-LMP1 Fold Increase, Kem I cells, 2.5 uM, 48 hours, fold change in LMP1 transcript vs vehicle
[6] = dose 2.5 uM, LMP1 transcript by in-well qRT-PCR, average of the two replicates
[7] = dose 2.5 uM, LMP1 transcript by in-well qRT-PCR, screen replicate 1
[8] = dose 2.5 uM, LMP1 transcript by in-well qRT-PCR, screen replicate 2
[9] = read-out: Average LMP1 Fold Increase, Kem I cells, dose 2.5 uM, 48 hours, LMP1 transcript by in-well qRT-PCR, average of the two replicates
[10] = read-out: Replicate 1-LMP1 Fold Increase, Kem I cells, dose 2.5 uM, 48 hours, LMP1 transcript by in-well qRT-PCR, screen replicate 1
[11] = read-out: Replicate 2-LMP1 Fold Increase, Kem I cells, dose 2.5 uM, 48 hours, LMP1 transcript by in-well qRT-PCR, screen replicate 2

Molecule	Average LMP1 Fold Increase [1]	Replicate 1-LMP1 Fold Increase [2]	Replicate 2-LMP1 Fold Increase [2]	fold induction at 2.5 µM [3]	fold induction at 2.5 µM [4]	other results
CCNC(=O)c1noc(-c2cc(C(C)C)c(O)cc2O)c1-c1ccc(CN2CCOCC2)cc1 [AUY922 (NVP-AUY922)]	1.29	1.62	0.96			
COCCCC/C(=N\OCCN)c1ccc(C(F)(F)F)cc1 [Fluvoxamine maleate]				0.67	0.97	fold induction at 2.5 µM [5]: 0.37
CN1CCC(CNc2ccc3ncc(-c4cccc(OC(F)(F)F)c4)n3n2)CC1 [SGI-1776 free base]	1.26	1.94	0.57			
O=C1[C@H](Cc2ccc(O)cc2)N2C(=O)CCN(C(=O)NCc3ccccc3)[C@H]2CN1Cc1cccc2ccccc12 [ICG-001]	1.04	1.17	0.92			
CC1C(=O)OC2C(O)C34C5CC(C(C)(C)C)C36C(OC(=O)C6O)OC4(C(=O)O5)C12O (stereo not drawn) [Ginkgolide B]	0.76	1.04	0.49			
Cc1cccc(CC(=O)N2CCc3c2ccc(-c2cn(C)c4ncnc(N)c24)c3F)n1 [GSK2656157]	0.71	0.58	0.84			
OC(CNCC(O)C1CCc2cc(F)ccc2O1)C1CCc2cc(F)ccc2O1 (stereo not drawn) [Nebivolol]				1.16	0.83	fold induction at 2.5 µM [5]: 1.49
NC(=O)c1ccc(I)c([N+](=O)[O-])c1 [Iniparib (BSl-201)]	0.63	0.51	0.76			
COc1cc(OC2CCN(C)CC2)ccc1Nc1ncc2c(n1)n(C1CCCC1)c(=O)n2C [AZ 3146]	0.61	0.66	0.57			
O=C(O)c1cccc(-c2noc(-c3ccccc3F)n2)c1 [Ataluren (PTC124)]	0.49	0.50	0.48			
VU 0364770						Average LMP1 Fold Increase [6]: 1.03 fold; Replicate 1-LMP1 Fold Increase [7]: 0.51 fold; Replicate 2-LMP1 Fold Increase [8]: 1.55 fold
O=C(O)/C=C/c1ccc(Cn2ccnc2)cc1 [Ozagrel]			1.55	1.41	1.27	
c1ccc(CC2=NCCN2)cc1 [Tolazoline HCl]						fold induction at 2.5 µM [9]: 0.26; fold induction at 2.5 µM [10]: 0.26; fold induction at 2.5 µM [11]: 0.27
CC(NC(=O)c1ccccc1/N=C/c1c(O)ccc2ccccc12)c1ccccc1 (stereo not drawn) [Sirtinol]				0.6	0.28	fold induction at 2.5 µM [5]: 0.92
CCOc1ccccc1-n1c(C(C)N2CCN(C(=O)COc3ccc(Cl)cc3)CC2)nc2ccccc2c1=O (stereo not drawn) [Erastin]				0.73	0.7	fold induction at 2.5 µM [5]: 0.75
O=C(NOC[C@H](O)CO)c1ccc(F)c(F)c1Nc1ccc(I)cc1F [PD0325901]				0.47	0.68	fold induction at 2.5 µM [5]: 0.27
VU 0357121						Average LMP1 Fold Increase [6]: 0.48 fold; Replicate 1-LMP1 Fold Increase [7]: 0.51 fold; Replicate 2-LMP1 Fold Increase [8]: 0.46 fold
N#Cc1c(O)c2c(-c3ccc(-c4ccccc4O)cc3)csc2[nH]c1=O [A-769662]	0.40	0.41	0.39			
O=c1cc(-c2ccc(O)cc2)oc2cc(O)cc(O)c12 [Apigenin]				0.58	0.69	fold induction at 2.5 µM [5]: 0.47
O=C(Nc1ccccc1Br)N[C@@H]1CCN(c2ccc(C(F)(F)F)cn2)C1 [SB705498]	0.43	0.38	0.48			
CCc1cncnc1N1CCN(Cc2nc3ccc(C(F)(F)F)cc3[nH]2)CC1 [PF-4708671]	0.74	1.30	0.18			
C[C@H]1COC2=C1C(=O)C(=O)c1c2ccc2c1CCCC2(C)C [Cryptotanshinone]				0.85	0.94	fold induction at 2.5 µM [5]: 0.77
O=C(NC[C@H]1CN(c2ccc(N3CCOCC3=O)cc2)C(=O)O1)c1ccc(Cl)s1 [Rivaroxaban]				0.14	0.08	fold induction at 2.5 µM [5]: 0.2

Molecule	Average LMP1 Fold Increase [1]	Replicate 1-LMP1 Fold Increase [2]	Replicate 2-LMP1 Fold Increase [2]	fold induction at 2.5 µM [3]	fold induction at 2.5 µM [4]	other results
CC[C@@H]1C(=O)N(C)c2cnc(Nc3ccc(C(=O)NC4CCN(C)CC4)cc3OC)nc2N1C1CCCC1 [BI 2536]				12.6	23.3	fold induction at 2.5 µM [5]: 1.89
c1ccc(NCc2ccc(CNc3ccccn3)cc2)nc1 [WZ811]						Average LMP1 Fold Increase [6]: 0.08 fold; Replicate 1-LMP1 Fold Increase [7]: 0.08 fold; Replicate 2-LMP1 Fold Increase [8]: 0.08 fold
CCOc1ccc(Cc2cc([C@@H]3O[C@H](CO)[C@@H](O)[C@H](O)[C@H]3O)ccc2Cl)cc1 [Dapagliflozin]				1.01	0.69	fold induction at 2.5 µM [5]: 1.34
CC(C)(C#N)c1cc(Cn2cncn2)cc(C(C)(C)C#N)c1 [Anastrozole]				0.94	0.45	fold induction at 2.5 µM [5]: 1.42
COc1ccc(C(=O)Nc2sc3c(c2C(N)=O)CCCC3)cc1OC [TCS 359]						Average LMP1 Fold Increase [6]: 0.40 fold; Replicate 1-LMP1 Fold Increase [7]: 0.62 fold; Replicate 2-LMP1 Fold Increase [8]: 0.19 fold
CCO[C@@H]1OC(=O)C[C@@H]1NC(=O)[C@@H]1CCCN1C(=O)[C@@H](NC(=O)c1ccc(N)c(Cl)c1)C(C)(C)C [VX-765]						fold induction at 2.5 µM [9]: 0.41; fold induction at 2.5 µM [10]: 0.45; fold induction at 2.5 µM [11]: 0.37
O=C(c1ccc(Nc2nccc(-c3cc4ccccc4s3)n2)cc1)N1CCC(N2CCCC2)CC1 [IKK-16 (IKK Inhibitor VII)]	0.30	0.26	0.35			
C[S+]([O-])c1ccc(-c2nc(-c3ccc(F)cc3)c(-c3ccncc3)[nH]2)cc1 (stereo not drawn) [SB203580]	0.57	0.54	0.59			
O=C(NOCC1CC1)c1ccc(F)c(F)c1Nc1ccc(I)cc1Cl [PD184352 (CI-1040)]	0.66	0.65	0.66			
CC(C)N(CC[C@H](c1ccccc1)c1cc(CO)ccc1O)C(C)C	0.36	0.49	0.23			
CN1CCc2cc3c(cc2[C@H]1[C@@H]1OC(=O)c2c1ccc1c2OCO1)OCO3 [(+)-Bicuculline]	0.89	0.86	0.93			
COc1nc(C)cnc1NS(=O)(=O)c1cccnc1-c1ccc(-c2nnco2)cc1 [Zibotentan (ZD4054)]						Average LMP1 Fold Increase [6]: 0.77 fold; Replicate 1-LMP1 Fold Increase [7]: 0.57 fold; Replicate 2-LMP1 Fold Increase [8]: 0.97 fold
CN1CCC[C@@H]1CCO[C@](C)(c1ccccc1)c1ccc(Cl)cc1 [Clemastine Fumarate]				0.67	0.64	fold induction at 2.5 µM [5]: 0.69
COC(=O)CCSCc1ccc(-c2onc(C)c2NC(=O)OC(C)c2ccccc2Cl)cc1 (stereo not drawn) [Ki16198]	1.33	1.53	1.12			
Cc1cn([C@H]2C=C[C@@H](CO)O2)c(=O)[nH]c1=O [Stavudine (d4T)]	0.73	0.83	0.63			
Cc1cnc(NC(=O)Nc2cc(Br)c(C)cc2OC[C@@H]2CNCCO2)cn1 [LY2603618]	1.21	0.94	1.47			
Nc1ncnc2n[nH]c(Nc3ccc(F)cc3)c12 [CGP 57380]	1.33	0.81	1.86			
CC(C)(C)c1cnc(CSc2cnc(NC(=O)C3CCNCC3)s2)o1 [SNS-032 (BMS-387032)]	23.97	23.56	24.39			
CCOC(=O)[C@H]1O[C@@H]1C(=O)N[C@@H](CC(C)C)C(=O)NCCC(C)C [Aloxistatin]				0.11	0.1	fold induction at 2.5 µM [5]: 0.12
CN(C)Cc1ccc(-c2nc3cccc4c3n2CCNC4=O)cc1 [AG-14361]	0.30	0.39	0.22			
Cl.O=C(O)Cc1cccc(OCCCN(Cc2cccc(C(F)(F)F)c2Cl)CC(c2ccccc2)c2ccccc2)c1 [GW3965 HCl]	0.27	0.20	0.35			
Cl.Cl.O=S(=O)(NCCNC/C=C/c1ccc(Br)cc1)c1cccc2cnccc12 [H 89 2HCl]	0.68	0.54	0.82			
